Measured values: ChEMBL document CHEMBL5241131, “2-Anilino-4-(1-methyl-1H-pyrazol-4-yl)pyrimidine-derived CDK2 inhibitors as anticancer agents: Design, synthesis & evaluation” (Bioorg Med Chem, 2023)

Assays:
[1] = target: Cyclin-dependent kinase 2/cyclin E (Homo sapiens, UniProt P24941); test: Inhibition of CDK2/cyclin E (unknown origin) assessed as inhibition constant incubated for 30 to 60 mins presence of dithiothreitol by Cheng-Prusoff equation analysis; type: protein-complex assay
[2] = target: Cyclin-dependent kinase 5/CDK5 activator 1 (Homo sapiens, UniProt Q00535); test: Inhibition of CDK5/p25 (unknown origin) assessed as inhibition constant incubated for 30 to 60 mins presence of dithiothreitol by Cheng-Prusoff equation analysis; type: protein-complex assay
[3] = target: Cyclin-dependent kinase 1/cyclin B (Homo sapiens, UniProt P06493); test: Inhibition of CDK1/Cyclin B (unknown origin) assessed as inhibition constant incubated for 30 to 60 mins presence of dithiothreitol by Cheng-Prusoff equation analysis; type: protein-complex assay
[4] = target: CDK9/cyclin T1 (Homo sapiens) (UniProt O60563+P50750); test: Inhibition of CDK9/cyclin T1 (unknown origin) at 1 uM incubated for 30 to 60 mins presence of dithiothreitol by Cheng-Prusoff equation analysis relative to control; type: protein-complex assay; conditions: time 30-60 min
A2780 [5] = test: Antiproliferative activity against human A2780 cells assessed as inhibition of cell growth at 1 uM incubated for 72 hrs by MTT assay; type: functional; set-up: scale not given: the % may be the effect or the level left
[6] = target: Cyclin-dependent kinase 5/CDK5 activator 1 (Homo sapiens) (UniProt Q00535+Q15078); test: Inhibition of CDK5/p25 (unknown origin) at 1 uM incubated for 30 to 60 mins presence of dithiothreitol by Cheng-Prusoff equation analysis relative to control; type: protein-complex assay; conditions: time 30-60 min
[7] = target: Cyclin-dependent kinase 1/cyclin B (Homo sapiens) (UniProt P06493+P14635+Q8WWL7+O95067); test: Inhibition of CDK1/Cyclin B (unknown origin) at 1 uM incubated for 30 to 60 mins presence of dithiothreitol by Cheng-Prusoff equation analysis relative to control; type: protein-complex assay; conditions: time 30-60 min
[8] = target: Cyclin-dependent kinase 2/cyclin E (Homo sapiens) (UniProt P24864+P24941+O96020); test: Inhibition of CDK2/cyclin E (unknown origin) at 1 uM incubated for 30 to 60 mins presence of dithiothreitol by Cheng-Prusoff equation analysis relative to control; type: protein-complex assay; conditions: time 30-60 min
A2780 [9] = test: Antiproliferative activity against human A2780 cells assessed as inhibition of cell growth incubated for 72 hrs by MTT assay; type: functional
CDK9/cyclin T1 = CDK9/cyclin T1 (Homo sapiens, UniProt P50750); test: Inhibition of CDK9/cyclin T1 (unknown origin) assessed as inhibition constant incubated for 30 to 60 mins presence of dithiothreitol by Cheng-Prusoff equation analysis; type: protein-complex assay
CDK9/cyclin T1, sequence (O60563 whole entry): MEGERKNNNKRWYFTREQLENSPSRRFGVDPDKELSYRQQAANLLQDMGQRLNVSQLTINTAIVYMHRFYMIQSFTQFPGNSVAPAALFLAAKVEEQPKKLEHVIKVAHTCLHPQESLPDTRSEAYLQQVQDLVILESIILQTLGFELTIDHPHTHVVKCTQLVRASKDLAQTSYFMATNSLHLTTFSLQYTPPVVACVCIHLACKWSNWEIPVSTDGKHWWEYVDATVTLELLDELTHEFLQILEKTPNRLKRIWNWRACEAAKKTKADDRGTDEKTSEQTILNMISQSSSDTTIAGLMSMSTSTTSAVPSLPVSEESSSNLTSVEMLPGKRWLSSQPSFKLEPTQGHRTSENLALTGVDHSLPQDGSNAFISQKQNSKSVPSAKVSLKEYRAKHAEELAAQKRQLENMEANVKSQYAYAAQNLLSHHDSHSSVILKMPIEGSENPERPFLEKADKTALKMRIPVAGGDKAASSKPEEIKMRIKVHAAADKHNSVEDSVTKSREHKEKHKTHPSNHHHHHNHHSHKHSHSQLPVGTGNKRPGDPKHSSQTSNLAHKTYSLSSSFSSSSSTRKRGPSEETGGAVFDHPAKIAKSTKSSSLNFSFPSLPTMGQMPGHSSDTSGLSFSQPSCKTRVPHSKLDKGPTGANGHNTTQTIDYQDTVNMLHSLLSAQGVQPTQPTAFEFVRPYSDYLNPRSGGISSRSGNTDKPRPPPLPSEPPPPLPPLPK
CDK9/cyclin T1, sequence (P50750 whole entry): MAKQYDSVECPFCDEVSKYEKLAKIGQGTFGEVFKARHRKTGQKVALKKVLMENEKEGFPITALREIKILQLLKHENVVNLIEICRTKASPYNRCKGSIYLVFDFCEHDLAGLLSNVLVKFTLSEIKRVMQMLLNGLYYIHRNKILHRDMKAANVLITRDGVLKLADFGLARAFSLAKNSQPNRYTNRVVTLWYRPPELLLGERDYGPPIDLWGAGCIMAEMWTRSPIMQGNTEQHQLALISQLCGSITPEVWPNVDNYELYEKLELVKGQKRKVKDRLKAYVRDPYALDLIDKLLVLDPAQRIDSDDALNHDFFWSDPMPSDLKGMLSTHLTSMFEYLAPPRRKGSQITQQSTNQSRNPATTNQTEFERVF

Cyclin-dependent kinase 5/CDK5 activator 1 (Homo sapiens), sequence (Q00535 whole entry): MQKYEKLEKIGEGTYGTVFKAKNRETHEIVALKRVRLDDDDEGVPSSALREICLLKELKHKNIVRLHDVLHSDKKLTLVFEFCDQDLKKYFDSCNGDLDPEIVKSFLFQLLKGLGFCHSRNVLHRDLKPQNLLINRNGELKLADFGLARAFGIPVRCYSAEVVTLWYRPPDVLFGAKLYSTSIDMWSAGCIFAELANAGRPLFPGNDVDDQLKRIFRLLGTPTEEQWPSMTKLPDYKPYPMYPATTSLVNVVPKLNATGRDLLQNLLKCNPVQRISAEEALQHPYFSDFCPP
Cyclin-dependent kinase 5/CDK5 activator 1 (Homo sapiens), sequence (Q15078 99-307 partner limits assumed): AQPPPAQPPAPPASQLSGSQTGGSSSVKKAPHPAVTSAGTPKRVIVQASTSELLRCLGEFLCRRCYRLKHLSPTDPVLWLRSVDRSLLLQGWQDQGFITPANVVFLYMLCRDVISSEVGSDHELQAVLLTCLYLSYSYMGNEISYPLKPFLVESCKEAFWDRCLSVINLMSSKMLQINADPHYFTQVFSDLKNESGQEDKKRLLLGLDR
Cyclin-dependent kinase 5/CDK5 activator 1, sequence (Q00535 whole entry): as the sequence (Q00535 whole entry) above
Cyclin-dependent kinase 5/CDK5 activator 1, sequence (Q15078 whole entry, further chain): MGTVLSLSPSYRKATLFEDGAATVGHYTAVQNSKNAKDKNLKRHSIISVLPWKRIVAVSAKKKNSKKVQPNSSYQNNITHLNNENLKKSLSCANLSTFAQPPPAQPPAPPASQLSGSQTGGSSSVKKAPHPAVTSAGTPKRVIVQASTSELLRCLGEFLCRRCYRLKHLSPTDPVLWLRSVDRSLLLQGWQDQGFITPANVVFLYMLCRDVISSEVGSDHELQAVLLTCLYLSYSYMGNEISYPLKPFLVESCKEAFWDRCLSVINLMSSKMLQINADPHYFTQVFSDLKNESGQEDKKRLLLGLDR

Row | Ki [1] [nM] | Ki [2] [nM] | Ki [3] [nM] | inhibition [4] [%] | inhibition [6] [%] | inhibition [7] [%] | inhibition [8] [%] | GI50 (A2780 [9]) [nM] | Ki (CDK9/cyclin T1) [nM] | SMILES | Activity (A2780 [5]) [%]
1 | 16 | 2 | 12 | 27 |  |  |  |  |  | Cc1nn(C)cc1-c1nc(NC2CCN(S(C)(=O)=O)CC2)ncc1Cl | 20
2 |  |  |  | 69 | 46 | 50 | 57 |  |  | Cn1cc(-c2nc(Nc3cccc(Cl)c3)ncc2F)cn1 | 12
3 | 176 | 92 | 5 |  |  |  |  | 80 | 301 | Cn1cc(-c2nc(Nc3cccc(S(N)(=O)=O)c3)ncc2Cl)cn1 | 
4 |  |  |  | 20 | 46 | 42 | 1 | 215 |  | Cn1cc(-c2nc(Nc3cccc(S(=O)(=O)C(F)(F)F)c3)ncc2F)cn1 | 
5 | 7 | 36 | 6 |  |  |  |  |  | 229 | Cn1cc(-c2nc(Nc3ccc(S(C)(=O)=O)cc3)ncc2Cl)cn1 | 63
6 |  |  |  | 45 | 58 | 2 | 53 | 125 |  | Cn1cc(-c2nc(Nc3cccc(S(=O)(=O)C(F)(F)F)c3)ncc2Cl)cn1 | 63
7 | 171 |  |  | 59 | 48 | 65 |  |  |  | Cn1nccc1-c1nc(Nc2cccc(S(N)(=O)=O)c2)ncc1F | 0
8 | 21 | 19 | 6 |  |  |  |  | 232 | 271 | Cn1cc(-c2nc(Nc3ccc(S(N)(=O)=O)cc3)ncc2F)cn1 | 
9 |  |  |  | 51 | 16 | 22 | 1 |  |  | Cn1cc(-c2nc(Nc3ccc(F)c(C(F)(F)F)c3)ncc2F)cn1 | 28
10 | 70 |  |  | 6 | 46 | 54 | 15 |  |  | Cn1cc(-c2nc(Nc3ccc(S(=O)(=O)C(F)(F)F)cc3)ncc2F)cn1 | 54
11 |  |  |  | 73 | 56 | 24 | 48 | 7 |  | Cn1cc(-c2nc(Nc3cccc([N+](=O)[O-])c3)ncc2Cl)cn1 | 
12 |  |  |  | 57 | 41 | 4 | 13 |  |  | Cn1cc(-c2cc(N)nc(Nc3cccc(S(N)(=O)=O)c3)n2)cn1 | 0
13 | 8 | 9 | 26 | 39 |  |  |  |  |  | Cn1cc(-c2nc(NC3CCN(S(C)(=O)=O)CC3)ncc2Cl)cn1 | 45
14 |  | 42 | 146 | 33 |  |  |  |  |  | Cn1cc(-c2nc(Nc3ccc(S(C)(=O)=O)cc3)ncc2F)cn1 | 5
15 | 87 |  |  |  | 67 | 54 |  | 113 | 147 | Cn1cc(-c2nc(Nc3cccc([N+](=O)[O-])c3)ncc2F)cn1 | 
16 |  |  |  | 39 | 3 | 8 | 10 |  |  | Cn1cc(-c2nc(Nc3ccc(C(F)(F)F)c(Cl)c3)ncc2F)cn1 | 32
17 |  |  |  | 40 | 40 | 6 | 53 |  |  | Nc1cc(-c2cnn(Cc3ccccc3)c2)nc(Nc2cccc(S(N)(=O)=O)c2)n1 | 0
18 | 18 | 36 | 99 | 55 |  |  |  |  |  | Cn1cc(-c2nc(NC3CCN(S(C)(=O)=O)CC3)ncc2F)cn1 | 17
